Assay results published in ChEMBL document CHEMBL5528028, “Discovery of benzopyridone cyanoacetates as new type of potential broad-spectrum antibacterial candidates” (Eur J Med Chem, 2024).
Values after ≈ are worked out from the molar mass of the structure shown.

Columns and labels:
Type in all cases: functional
Staphylococcus aureus [1] = assay: Antibacterial activity against methicillin-resistant Staphylococcus aureus assessed growth inhibition by micro broth dilution method
Staphylococcus aureus [2] = assay: Antibacterial activity against Staphylococcus aureus assessed growth inhibition by micro broth dilution method
Staphylococcus aureus [3] = assay: Antibacterial activity against Staphylococcus aureus ATCC 25923 assessed growth inhibition by micro broth dilution method
Staphylococcus aureus [4] = assay: Antibacterial activity against Staphylococcus aureus ATCC 29213 assessed growth inhibition by micro broth dilution method
Enterococcus faecalis = assay: Antibacterial activity against Enterococcus faecalis assessed growth inhibition by micro broth dilution method
Klebsiella pneumoniae = assay: Antibacterial activity against Klebsiella pneumonia assessed growth inhibition by micro broth dilution method
Escherichia coli [5] = assay: Antibacterial activity against Escherichia coli assessed growth inhibition by micro broth dilution method
Escherichia coli [6] = assay: Antibacterial activity against Escherichia coli ATCC 25922 assessed growth inhibition by micro broth dilution method
Pseudomonas aeruginosa [7] = assay: Antibacterial activity against Pseudomonas aeruginosa assessed growth inhibition by micro broth dilution method
Pseudomonas aeruginosa [8] = assay: Antibacterial activity against Pseudomonas aeruginosa ATCC 27853 assessed growth inhibition by micro broth dilution method
Acinetobacter baumannii = assay: Antibacterial activity against Acinetobacter baumannii assessed growth inhibition by micro broth dilution method

Structure (SMILES) | MIC (Staphylococcus aureus [1]) [µg/mL] | MIC (Staphylococcus aureus [2]) [µg/mL] | MIC (Staphylococcus aureus [3]) [µg/mL] | MIC (Staphylococcus aureus [4]) [µg/mL] | MIC (Enterococcus faecalis) [µg/mL] | MIC (Klebsiella pneumoniae) [µg/mL] | MIC (Escherichia coli [5]) [µg/mL] | MIC (Escherichia coli [6]) [µg/mL] | MIC (Pseudomonas aeruginosa [7]) [µg/mL] | MIC (Pseudomonas aeruginosa [8]) [µg/mL] | MIC (Acinetobacter baumannii) [µg/mL]
CCCn1cc(C(=O)OCC)c(=O)c2cc(F)c([C-](C#N)C(=O)OCC)cc21.[Na+] (stereo not drawn) | 64 | 128 | 2 | 16 | 16 | 16 | 16 | 4 | 8 | 8 | 16
CCOC(=O)C(C#N)c1cc2c(cc1F)c(=O)c(C(=O)O)cn2Cc1ccc(Cl)cc1Cl (stereo not drawn) | 2 (≈ 4.19 µM) | 1 (≈ 2.1 µM) | 1 (≈ 2.1 µM) | 2 (≈ 4.19 µM) | 8 (≈ 16.8 µM) | 0.25 (≈ 0.524 µM) | 16 (≈ 33.5 µM) | 0.5 (≈ 1.05 µM) | 4 (≈ 8.38 µM) | 2 (≈ 4.19 µM) | 1 (≈ 2.1 µM)
CCOC(=O)c1cn(CC)c2cc(C(C#N)C(=O)OCC)c(F)cc2c1=O (stereo not drawn) | 256 (≈ 684 µM) | 32 (≈ 85.5 µM) | 8 (≈ 21.4 µM) | 16 (≈ 42.7 µM) | 32 (≈ 85.5 µM) | 8 (≈ 21.4 µM) | 16 (≈ 42.7 µM) | 16 (≈ 42.7 µM) | 8 (≈ 21.4 µM) | 8 (≈ 21.4 µM) | 32 (≈ 85.5 µM)
CCCCn1cc(C(=O)OCC)c(=O)c2cc(F)c(F)cc21 | 256 (≈ 828 µM) | 32 (≈ 103 µM) | 128 (≈ 414 µM) | 128 (≈ 414 µM) | 64 (≈ 207 µM) | 64 (≈ 207 µM) | 16 (≈ 51.7 µM) | 128 (≈ 414 µM) | 64 (≈ 207 µM) | 256 (≈ 828 µM) | 128 (≈ 414 µM)
CCOC(=O)c1cn(Cc2ccccc2)c2cc(C(C#N)C(=O)OCC)c(F)cc2c1=O (stereo not drawn) | 32 (≈ 73.3 µM) | 8 (≈ 18.3 µM) | 2 (≈ 4.58 µM) | 2 (≈ 4.58 µM) | 16 (≈ 36.7 µM) | 2 (≈ 4.58 µM) | 32 (≈ 73.3 µM) | 16 (≈ 36.7 µM) | 0.5 (≈ 1.15 µM) | 2 (≈ 4.58 µM) | 8 (≈ 18.3 µM)
CCOC(=O)c1cn(Cc2cnc(Cl)s2)c2cc(F)c(F)cc2c1=O | 32 (≈ 83.2 µM) | 256 (≈ 665 µM) | 4 (≈ 10.4 µM) | 32 (≈ 83.2 µM) | 32 (≈ 83.2 µM) | 64 (≈ 166 µM) | 8 (≈ 20.8 µM) | 32 (≈ 83.2 µM) | 64 (≈ 166 µM) | 16 (≈ 41.6 µM) | 32 (≈ 83.2 µM)
CCOC(=O)c1cn(Cc2ccc([N+](=O)[O-])cc2)c2cc(F)c(F)cc2c1=O | 256 (≈ 659 µM) | 128 (≈ 330 µM) | 256 (≈ 659 µM) | 256 (≈ 659 µM) | 256 (≈ 659 µM) | 256 (≈ 659 µM) | 2 (≈ 5.15 µM) | 128 (≈ 330 µM) | 256 (≈ 659 µM) | 256 (≈ 659 µM) | 16 (≈ 41.2 µM)
CCCCCCCCCCCCn1cc(C(=O)OCC)c(=O)c2cc(F)c([C-](C#N)C(=O)OCC)cc21.[Na+] (stereo not drawn) | 8 | 32 | 1 | 1 | 8 | 1 | 1 | 0.5 | 4 | 0.25 | 0.25
CCOC(=O)c1cn(CC2CC2)c2cc([C-](C#N)C(=O)OCC)c(F)cc2c1=O.[Na+] (stereo not drawn) | 64 | 64 | 4 | 16 | 64 | 16 | 16 | 4 | 16 | 8 | 16
C#CCn1cc(C(=O)OCC)c(=O)c2cc(F)c(F)cc21 | 128 (≈ 439 µM) | 128 (≈ 439 µM) | 256 (≈ 879 µM) | 128 (≈ 439 µM) | 128 (≈ 439 µM) | 128 (≈ 439 µM) | 4 (≈ 13.7 µM) | 64 (≈ 220 µM) | 16 (≈ 54.9 µM) | 256 (≈ 879 µM) | 256 (≈ 879 µM)
CCOC(=O)c1cn(CC(=O)N2CCN(C(=O)OC(C)(C)C)CC2)c2cc(F)c(F)cc2c1=O | 64 (≈ 133 µM) | 256 (≈ 534 µM) | 128 (≈ 267 µM) | 64 (≈ 133 µM) | 64 (≈ 133 µM) | 256 (≈ 534 µM) | 4 (≈ 8.34 µM) | 64 (≈ 133 µM) | 64 (≈ 133 µM) | 32 (≈ 66.7 µM) | 64 (≈ 133 µM)
CCOC(=O)c1cn(CC2CC2)c2cc(F)c(F)cc2c1=O | 256 (≈ 833 µM) | 128 (≈ 417 µM) | 128 (≈ 417 µM) | 128 (≈ 417 µM) | 128 (≈ 417 µM) | 128 (≈ 417 µM) | 16 (≈ 52.1 µM) | 64 (≈ 208 µM) | 32 (≈ 104 µM) | 256 (≈ 833 µM) | 256 (≈ 833 µM)
C#CCn1cc(C(=O)OCC)c(=O)c2cc(F)c([C-](C#N)C(=O)OCC)cc21.[Na+] (stereo not drawn) | 64 | 64 | 2 | 16 | 32 | 16 | 16 | 8 | 32 | 8 | 16
CCOC(=O)c1cn(Cc2ccc(C)cc2)c2cc([C-](C#N)C(=O)OCC)c(F)cc2c1=O.[Na+] (stereo not drawn) | 64 | 32 | 0.5 | 0.5 | 16 | 2 | 1 | 1 | 8 | 1 | 2
CCOC(=O)C(C#N)c1cc2c(cc1F)c(=O)c(C(=O)O)cn2CC (stereo not drawn) | 4 (≈ 11.6 µM) | 4 (≈ 11.6 µM) | 4 (≈ 11.6 µM) | 16 (≈ 46.2 µM) | 64 (≈ 185 µM) | 1 (≈ 2.89 µM) | 32 (≈ 92.4 µM) | 0.5 (≈ 1.44 µM) | 8 (≈ 23.1 µM) | 4 (≈ 11.6 µM) | 8 (≈ 23.1 µM)
CCOC(=O)c1cn(Cc2ccc(Cl)cc2Cl)c2cc(F)c(F)cc2c1=O | 256 (≈ 621 µM) | 128 (≈ 311 µM) | 256 (≈ 621 µM) | 256 (≈ 621 µM) | 256 (≈ 621 µM) | 0.5 (≈ 1.21 µM) | 16 (≈ 38.8 µM) | 32 (≈ 77.6 µM) | 128 (≈ 311 µM) | 256 (≈ 621 µM) | 256 (≈ 621 µM)
CCOC(=O)c1cn(Cc2ccc(F)cc2F)c2cc(C(C#N)C(=O)OCC)c(F)cc2c1=O (stereo not drawn) | 32 (≈ 67.7 µM) | 8 (≈ 16.9 µM) | 4 (≈ 8.47 µM) | 4 (≈ 8.47 µM) | 16 (≈ 33.9 µM) | 4 (≈ 8.47 µM) | 16 (≈ 33.9 µM) | 16 (≈ 33.9 µM) | 2 (≈ 4.23 µM) | 4 (≈ 8.47 µM) | 32 (≈ 67.7 µM)
CCn1cc(C(=O)O)c(=O)c2cc(F)c(N3CCNCC3)cc21 [NORFLOXACIN] | 8 (≈ 25.1 µM) | 8 (≈ 25.1 µM) | 8 (≈ 25.1 µM) | 4 (≈ 12.5 µM) | 8 (≈ 25.1 µM) | 8 (≈ 25.1 µM) | 4 (≈ 12.5 µM) | 4 (≈ 12.5 µM) | 8 (≈ 25.1 µM) | 8 (≈ 25.1 µM) | 2 (≈ 6.26 µM)
CCOC(=O)c1cn(Cc2ccccc2Cl)c2cc(F)c(F)cc2c1=O | 256 (≈ 678 µM) | 128 (≈ 339 µM) | 256 (≈ 678 µM) | 256 (≈ 678 µM) | 4 (≈ 10.6 µM) | 32 (≈ 84.7 µM) | 2 (≈ 5.29 µM) | 128 (≈ 339 µM) | 256 (≈ 678 µM) | 256 (≈ 678 µM) | 32 (≈ 84.7 µM)
CCOC(=O)c1cn(Cc2ccccn2)c2cc(F)c(F)cc2c1=O | 256 (≈ 744 µM) | 64 (≈ 186 µM) | 64 (≈ 186 µM) | 128 (≈ 372 µM) | 128 (≈ 372 µM) | 128 (≈ 372 µM) | 2 (≈ 5.81 µM) | 64 (≈ 186 µM) | 128 (≈ 372 µM) | 64 (≈ 186 µM) | 16 (≈ 46.5 µM)
CCOC(=O)C(C#N)c1c(F)cc2c(=O)c(C(=O)O)cn(CC)c2c1F (stereo not drawn) | 16 (≈ 43.9 µM) | 16 (≈ 43.9 µM) | 32 (≈ 87.8 µM) | 32 (≈ 87.8 µM) | 128 (≈ 351 µM) | 4 (≈ 11 µM) | 64 (≈ 176 µM) | 2 (≈ 5.49 µM) | 64 (≈ 176 µM) | 4 (≈ 11 µM) | 0.5 (≈ 1.37 µM)
CCOC(=O)c1cn(CC=C(C)C)c2cc([C-](C#N)C(=O)OCC)c(F)cc2c1=O.[Na+] (stereo not drawn) | 256 | 256 | 0.5 | 8 | 256 | 8 | 256 | 8 | 256 | 8 | 256
CCOC(=O)c1cn(C2CC2)c2cc(F)c(F)cc2c1=O | 256 (≈ 873 µM) | 64 (≈ 218 µM) | 16 (≈ 54.6 µM) | 128 (≈ 436 µM) | 128 (≈ 436 µM) | 64 (≈ 218 µM) | 16 (≈ 54.6 µM) | 64 (≈ 218 µM) | 32 (≈ 109 µM) | 256 (≈ 873 µM) | 256 (≈ 873 µM)
CCCCCCn1cc(C(=O)OCC)c(=O)c2cc(F)c(F)cc21 | 256 (≈ 759 µM) | 8 (≈ 23.7 µM) | 128 (≈ 379 µM) | 128 (≈ 379 µM) | 64 (≈ 190 µM) | 64 (≈ 190 µM) | 8 (≈ 23.7 µM) | 64 (≈ 190 µM) | 64 (≈ 190 µM) | 256 (≈ 759 µM) | 64 (≈ 190 µM)
C=CCn1cc(C(=O)OCC)c(=O)c2cc(F)c(F)cc21 | 256 (≈ 873 µM) | 128 (≈ 436 µM) | 64 (≈ 218 µM) | 128 (≈ 436 µM) | 128 (≈ 436 µM) | 32 (≈ 109 µM) | 8 (≈ 27.3 µM) | 64 (≈ 218 µM) | 64 (≈ 218 µM) | 256 (≈ 873 µM) | 256 (≈ 873 µM)
CCOC(=O)c1cn(CC(N)=O)c2cc(F)c(F)cc2c1=O | 256 (≈ 825 µM) | 128 (≈ 413 µM) | 256 (≈ 825 µM) | 256 (≈ 825 µM) | 256 (≈ 825 µM) | 256 (≈ 825 µM) | 8 (≈ 25.8 µM) | 32 (≈ 103 µM) | 64 (≈ 206 µM) | 64 (≈ 206 µM) | 16 (≈ 51.6 µM)
CCOC(=O)c1cn(CCN2CCOCC2)c2cc([C-](C#N)C(=O)OCC)c(F)cc2c1=O.[Na+] (stereo not drawn) | 256 | 256 | 256 | 256 | 256 | 256 | 256 | 256 | 256 | 256 | 256
CCOC(=O)c1cn(CC=C(C)C)c2cc(F)c(F)cc2c1=O | 256 (≈ 797 µM) | 128 (≈ 398 µM) | 64 (≈ 199 µM) | 128 (≈ 398 µM) | 128 (≈ 398 µM) | 32 (≈ 99.6 µM) | 8 (≈ 24.9 µM) | 64 (≈ 199 µM) | 64 (≈ 199 µM) | 256 (≈ 797 µM) | 256 (≈ 797 µM)
